Laboratory results from BigSolDB 2.1.

O=C(O)c1ccc(C(=O)O)o1
Conditions | solubility (mole fraction)
in acetic acid, 303.55 K | 0.000242
in acetic acid, 313.25 K | 0.000319
in acetic acid, 322.95 K | 0.000471
in acetic acid, 332.75 K | 0.000656
in acetic acid, 342.45 K | 0.000874
in acetic acid, 352.25 K | 0.00111
in ethanol, 299.35 K | 0.00298
in ethanol, 305.35 K | 0.00337
in ethanol, 311.25 K | 0.004
in ethanol, 319.25 K | 0.00478
in ethanol, 323.15 K | 0.00526
in ethanol, 328.95 K | 0.0062
in ethanol, 334.75 K | 0.0072
in ethanol, 340.55 K | 0.00814
in ethanol, 346.35 K | 0.0093
in methanol, 297.35 K | 0.00371
in methanol, 303.35 K | 0.00408
in methanol, 309.35 K | 0.00484
in methanol, 315.25 K | 0.00563
in methanol, 321.15 K | 0.00661
in methanol, 326.85 K | 0.00758
in methanol, 332.65 K | 0.00884
in water, 303.55 K | 0.000141
in water, 313.25 K | 0.000195
in water, 322.95 K | 0.000302
in water, 332.75 K | 0.00047
in water, 342.45 K | 0.000672
in water, 352.25 K | 0.000873
